This is an account of results in PubChem BioAssay (NCI).

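Protocol summary: plate cells (96-well), add compound at 5 concentrations, incubate 48 h, interpolate endpoints linearly. GI50 = concentration required for 50% inhibition of growth. The concentration for full growth arrest is given as TGI.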

Among the test systems are HT29 colon; KM20L2 colon; NCI-H460 lung; TK-10 renal; NCI-H522 lung; HOP-18 NSCLC; SK-MEL-2 melanoma; LOX IMVI melanoma; SF-268 CNS; OVCAR-8 ovarian.
Holding throughout (assay): inhibition of tumour cell growth, NCI panel, 48 h

As for `O=C(Cc1ccccc1)NS(=O)(=O)c1ccccc1`, the TGI in the experiment on HT29 colon, in the experiment with KM20L2 colon, with NCI-H460 lung, in the experiment on TK-10 renal, in the experiment on NCI-H522 lung and in the experiment with HOP-18 NSCLC was more than 100 µM throughout. Besides, the TGI in the experiment with SK-MEL-2 melanoma, in the experiment on LOX IMVI melanoma, in the experiment on SF-268 CNS and in the experiment on OVCAR-8 ovarian was more than 100 µM throughout.

Turning to `CCOC(=O)NC1CC2CCC1(OC)C=C2C` (stereo not given), the TGI in the experiment on HT29 colon, with KM20L2 colon, in the experiment with NCI-H460 lung, in the experiment with TK-10 renal, in the experiment on NCI-H522 lung and in the experiment on HOP-18 NSCLC was more than 100 µM in each case. The TGI in the experiment with SK-MEL-2 melanoma, in the experiment with LOX IMVI melanoma, in the experiment on SF-268 CNS and in the experiment on OVCAR-8 ovarian was more than 100 µM throughout.

For the compound `COC(=O)C1=C(C)N(NC(N)=O)C(C)(O)C12CCOC2=O` (stereo not given), the TGI with HT29 colon, in the experiment with KM20L2 colon, in the experiment with NCI-H460 lung, with TK-10 renal, in the experiment with NCI-H522 lung and in the experiment with HOP-18 NSCLC was more than 100 µM in each case. In addition, the TGI in the experiment with SK-MEL-2 melanoma, with LOX IMVI melanoma, with SF-268 CNS and with OVCAR-8 ovarian was more than 100 µM throughout.

As for `Cn1sc2ccccc2c1=S`, the TGI with HT29 colon amounted to 23.3 µM; in the experiment on KM20L2 colon it was 28.8 µM; with NCI-H460 lung, 32.3 µM; with TK-10 renal it was 44.8 µM; in the experiment on NCI-H522 lung it was 9.36 µM; with HOP-18 NSCLC it was 28.4 µM. Further, the TGI came out at 56.5 µM with SK-MEL-2 melanoma, 4.5 µM in the experiment on LOX IMVI melanoma, 9.79 µM in the experiment with SF-268 CNS and 22.3 µM with OVCAR-8 ovarian.

For `O=NN(CCCl)C(=O)N[C@H]1CCCC[C@@H]1Cl`, the TGI in the experiment with HT29 colon, with KM20L2 colon, in the experiment with NCI-H460 lung, in the experiment with TK-10 renal, in the experiment with NCI-H522 lung and in the experiment with HOP-18 NSCLC was more than 100 µM each time. Besides, the TGI in the experiment with SK-MEL-2 melanoma, with SF-268 CNS and with OVCAR-8 ovarian was more than 100 µM throughout.

Regarding `COC1CC(OC)C(O)C(CO)O1` (stereo not given), the TGI with HT29 colon, with KM20L2 colon, in the experiment with NCI-H460 lung, in the experiment with TK-10 renal, in the experiment with NCI-H522 lung and in the experiment on HOP-18 NSCLC was more than 100 µM each time. For the same compound, the TGI in the experiment on SK-MEL-2 melanoma, in the experiment with LOX IMVI melanoma and with OVCAR-8 ovarian was more than 100 µM throughout.

In the case of `O=C(O)CCSC(=S)Nc1ccc([N+](=O)[O-])cc1`, the TGI with HT29 colon is more than 100 µM; in the experiment on KM20L2 colon, more than 100 µM; in the experiment with NCI-H460 lung it was more than 100 µM; with TK-10 renal, more than 100 µM; in the experiment with NCI-H522 lung, more than 68 µM; in the experiment with SK-MEL-2 melanoma it was more than 100 µM. For the same compound, the TGI in the experiment on LOX IMVI melanoma is more than 75.7 µM; with SF-268 CNS, more than 100 µM; in the experiment with OVCAR-8 ovarian, more than 100 µM.

As to `CC[CH2][Sn]([CH2]CC)([O]C(=O)Cc1ccc(F)cc1)[O][Sn]([CH2]CC)([CH2]CC)[O]C(=O)Cc1ccc(F)cc1`, the GI50 with HT29 colon is 0.728 µM; in the experiment on KM20L2 colon, 0.662 µM; in the experiment on NCI-H460 lung it was 1.34 µM; in the experiment on TK-10 renal it was 0.125 µM; in the experiment on HOP-18 NSCLC it was 0.25 µM; in the experiment on SK-MEL-2 melanoma it was 0.115 µM. Also, the GI50 with LOX IMVI melanoma was 0.0851 µM; in the experiment with SF-268 CNS, 0.13 µM; in the experiment with OVCAR-8 ovarian it was 0.278 µM. In addition, the TGI was 2.02 µM in the experiment on HT29 colon; 1.98 µM with KM20L2 colon; 2.7 µM in the experiment on NCI-H460 lung; 0.393 µM in the experiment on TK-10 renal; 0.0322 µM in the experiment on NCI-H522 lung; 0.828 µM in the experiment on HOP-18 NSCLC. Also, the TGI is 0.393 µM with SK-MEL-2 melanoma, 0.232 µM in the experiment with LOX IMVI melanoma, 0.606 µM in the experiment with SF-268 CNS and 1.41 µM in the experiment with OVCAR-8 ovarian.

As for `Cc1ccc(N2C(=O)C(Cl)=C(Cl)C2=O)cc1`, the TGI was 33.3 µM with HT29 colon; 53.6 µM in the experiment on KM20L2 colon; more than 100 µM in the experiment on NCI-H460 lung; 28.6 µM in the experiment on NCI-H522 lung; 36.3 µM in the experiment on HOP-18 NSCLC; more than 100 µM in the experiment on SK-MEL-2 melanoma. Besides, the TGI in the experiment on LOX IMVI melanoma came to 55.5 µM; in the experiment on SF-268 CNS, 37.8 µM.

As for `Cc1c(CC/C(=N\Nc2ccc([N+](=O)[O-])cc2[N+](=O)[O-])c2ccccc2)c2ccccc2n1C`, the TGI with HT29 colon, in the experiment with KM20L2 colon, with NCI-H460 lung, in the experiment on TK-10 renal, with NCI-H522 lung and with SK-MEL-2 melanoma was more than 100 µM throughout. In addition, the TGI with LOX IMVI melanoma, with SF-268 CNS and with OVCAR-8 ovarian was more than 100 µM in each case.

Consider `CCOC(=O)c1cc(OC(=O)CC)c2c(OC)ccc(OC)c2c1`, for which the TGI with NCI-H460 lung, in the experiment with TK-10 renal, with NCI-H522 lung, with HOP-18 NSCLC and in the experiment on SK-MEL-2 melanoma was more than 100 µM each time.

Regarding `C=C[C@H]1C=Cc2c(OC)cccc2[C@@H]1COP1(=S)NC(C)C(c2ccccc2)O1` (stereo not given in full), the TGI in the experiment with HT29 colon, with KM20L2 colon, with NCI-H460 lung, with TK-10 renal, in the experiment on NCI-H522 lung and in the experiment with HOP-18 NSCLC was more than 100 µM each time. In addition, the TGI in the experiment with LOX IMVI melanoma, in the experiment with SF-268 CNS and in the experiment on OVCAR-8 ovarian was more than 100 µM in each case.

Turning to `COc1ccccc1NC(=O)C(CC(C(=O)Nc1ccccc1OC)/C(C)=N/NC(=O)c1ccccc1O)/C(C)=N/NC(=O)c1ccccc1O` (stereo not given), the TGI with HT29 colon, with KM20L2 colon, in the experiment with NCI-H460 lung, with TK-10 renal, in the experiment on NCI-H522 lung and in the experiment on SK-MEL-2 melanoma was more than 100 µM throughout. Besides, the TGI in the experiment with LOX IMVI melanoma, in the experiment on SF-268 CNS and with OVCAR-8 ovarian was more than 100 µM throughout.

For the compound `Nc1nc(=Nc2ccccc2)ss1`, the TGI in the experiment on HT29 colon, in the experiment with KM20L2 colon, in the experiment with NCI-H460 lung, with TK-10 renal, in the experiment on NCI-H522 lung and in the experiment with HOP-18 NSCLC was more than 100 µM throughout. The TGI in the experiment on LOX IMVI melanoma, in the experiment with SF-268 CNS and in the experiment on OVCAR-8 ovarian was more than 100 µM throughout.
